Source: patent US20140329679A1, “HERBICIDAL COMPOSITIONS COMPRISING TRIFLUOROME THANESULFONANILIDES AND SAFENERS” (priority 2011, published 2014)

What was measured:
Format in all cases: in vivo
Maize (variety Claxxon) = test: Pre-emergence safening on corn, seed treated with safener, general crop injury; details: 250 g/ha compound of formula (I) sprayed the day after planting, evaluated after 21 days; for Percentage damage, corn treated with safener A: seed treated with safener A at 0.2 g per kg seed, mean of two replicates; for Percentage damage, untreated corn: seed without safener, mean % visual phytotoxicity of two replicates
Experimental: (§1) Maize (variety Claxxon) and wheat (variety Hereward) seeds were treated with a herbicide safener at a rate of 0.2 g safener per kg seed (maize) and 0.25 g safener per kg seed (wheat) prior to sowing. Treated and untreated seeds were sown into standard soil in troughs. The safeners used were N-(2-methoxybenzoyl)-4-Rmethylaminocarbonyl)aminoThenzenesulfonamide (safener A in Table 2) and cloquintocet-mexyl.
(§2) The day after planting the troughs were sprayed with an aqueous spray solution prepared by dissolving the technical active ingredient in an organic solvent and diluting with deionised water to give a final dose of 250 g/ha of a compound of formula (I).
(§3) The spray solution was applied with a cabinet tracksprayer with a flat fan nozzle (Teejet 11002VS) and an application volume of 200 L/ha (at 2 bar).
(§4) The test plants were then grown on in a glasshouse under controlled conditions (at 24/18° C. day/night; 16 hours light; 65% humidity) and watered twice a day. After 21 days the test was evaluated for general crop injury (100% equals total damage to plant; 0% equals no damage to plant).
(§5) Results are shown below in Table 2 as the mean % visual phytotoxicity of two replicates.

wheat (variety Hereward) = test: Pre-emergence safening on wheat, seed treated with safener, general crop injury; details: 250 g/ha compound of formula (I) sprayed the day after planting, evaluated after 21 days; for Percentage damage, wheat treated with cloquintocet-mexyl: seed treated with cloquintocet-mexyl at 0.25 g per kg seed, mean of two replicates; for Percentage damage, untreated wheat: seed without safener, mean % visual phytotoxicity of two replicates
Experimental: as §1, §2, §3, §4, §5

Maize (variety Garland) = test: Post-emergence crop safening on maize, general crop injury; details: post-emergence spray at 2-3 leaves; 500 g/ha Compound 41 alone or with 100 g/ha safener; 0.25% v/v Tween 20; evaluated after 21 days; mean of two replicates
Experimental: Maize (variety Garland) and soya (variety Nikko) seeds were sown into standard soil in pots and cultivated under controlled conditions in a glasshouse (at 24/18° C. day/night; 16 hours light; 65% humidity).
When the plants were at the vegetative stage of 2-3 leaves they were sprayed with an aqueous spray solution containing a compound of formula (I) alone and in combination with a number of different herbicide safeners. All the compounds used for the spray solution were present as technical material and the safeners were either an EC, SC or WP formulation respectively or technical material. In addition a non-ionic surfactant (Tween 20) was added to form a 0.25% v/v solution.
as §3, §4
Results are shown below in Table 3 as the mean % visual phytotoxicity of two replicates and in Table 4 as the mean % visual phytotoxicity of a single replicate.

soya (variety Nikko) = test: Post-emergence crop safening on soya, general crop injury; details: compound of formula (I) alone at 200 g/ha, post-emergence spray at 2-3 leaf stage, evaluated after 21 days; 100% = total damage, 0% = no damage; single replicate
Experimental: Maize (variety Garland) and soya (variety Nikko) seeds were sown into standard soil in pots and cultivated under controlled conditions in a glasshouse (at 24/18° C. day/night; 16 hours light; 65% humidity). […] All the compounds used for the spray solution were present as technical material and the safeners were either an EC, SC or WP formulation respectively or technical material. In addition a non-ionic surfactant (Tween 20) was added to form a 0.25% v/v solution. The spray solution was applied with a cabinet tracksprayer with a flat fan nozzle (Teejet 11002VS) and an application volume of 200 L/ha (at 2 bar). The test plants were then grown on in a glasshouse under controlled conditions (at 24/18° C. day/night; 16 hours light; 65% humidity) and watered twice a day. […] Results are shown below in Table 3 as the mean % visual phytotoxicity of two replicates and in Table 4 as the mean % visual phytotoxicity of a single replicate.

SMILES	Percentage damage, corn treated with safener A (Maize (variety Claxxon))	Percentage damage, untreated corn (Maize (variety Claxxon))	Percentage damage, wheat treated with cloquintocet-mexyl (wheat (variety Hereward))	Percentage damage, untreated wheat (wheat (variety Hereward))	Percentage damage caused to maize (Maize (variety Garland))	Percentage damage caused to soya (mean % visual phytotoxicity, general crop injury) (soya (variety Nikko))
CCOC(=O)N(c1ccccc1CN1CCCCS1(=O)=O)S(=O)(=O)C(F)(F)F [Compound 133]	10%	20%	5%	25%	–	–
CC1(C)CC(=O)N(Cc2ccccc2NS(=O)(=O)C(F)(F)F)O1 [Compound 20]	0%	40%	15%	25%	–	–
O=C1CCCCN1Cc1ccccc1NS(=O)(=O)C(F)(F)F [Compound 5]	25%	55%	20%	45%	–	–
O=C1COCCN1Cc1ccccc1NS(=O)(=O)C(F)(F)F [Compound 41]	5%	80%	10%	35%	25%	30%
CCOC(=O)N(c1ccccc1CN1CCCCC1=O)S(=O)(=O)C(F)(F)F [Compound 7]	10%	98%	30%	50%	–	–
CC1(C)CN(Cc2ccccc2NS(=O)(=O)C(F)(F)F)C(=O)O1 [Compound 85]	15%	65%	15%	40%	–	–
O=C1NCCCN1Cc1ccccc1NS(=O)(=O)C(F)(F)F [Compound 53]	5%	40%	10%	40%	–	–
CCOC(=O)N(c1ccccc1CN1CCCN(C)S1(=O)=O)S(=O)(=O)C(F)(F)F [Compound 146]	0%	22.5%	17.5%	40%	–	–
CCOC(=O)N(c1ccccc1CN1CCC(C)(C(F)(F)F)OC1=O)S(=O)(=O)C(F)(F)F (stereo not shown) [Compound 103]	0%	10%	0%	15%	–	–
CCC(=O)N(c1ccccc1CN1CCCC(SC)C1=O)S(=O)(=O)C(F)(F)F (stereo not shown) [Compound 16]	2.5%	86%	15%	40%	–	–
CC1(C(F)(F)F)CCN(Cc2ccccc2N(C(=O)OCCl)S(=O)(=O)C(F)(F)F)C(=O)O1 (stereo not shown) [Compound 102]	0%	5%	0%	10%	–	–
CN1CCCN(Cc2ccccc2N(C(=O)OCCl)S(=O)(=O)C(F)(F)F)S1(=O)=O [Compound 145]	0%	20%	5%	10%	–	–
CC(C)COC(=O)N(c1ccccc1CN1CCCN(C)S1(=O)=O)S(=O)(=O)C(F)(F)F [Compound 147]	2.5%	15%	5%	25%	–	–
O=C1CCCN1Cc1ccccc1NS(=O)(=O)C(F)(F)F [Compound 1]	5%	30%	5%	35%	–	–
CCC1(C(F)(F)F)CCN(Cc2ccccc2NS(=O)(=O)C(F)(F)F)C(=O)O1 (stereo not shown) [Compound 106]	–	–	–	–	–	15%
CCCC(=O)N(c1ccccc1CN1CCCCC1=O)S(=O)(=O)C(F)(F)F [Compound 6]	5%	80%	10%	30%	–	–
CC1(C)CC(=O)N(Cc2ccccc2N(C(=O)OCCl)S(=O)(=O)C(F)(F)F)O1 [Compound 21]	20%	30%	5%	20%	–	–
